Laboratory results from US20240024324A1, “KINASE INHIBITOR COMBINATIONS FOR CANCER TREATMENT” (Merck Patent GmbH, priority 2020, published 2024).

Key:
GSC231 [1] = test: Orthotopic GSC xenograft model; format: in vivo, mice
Description: (§1) The in vivo effects of M2698 and pimasertib, alone and in combination, were assessed in the GSC models after orthotopic implantation into mice. Treatment duration and time of euthanasia post-implantation was 5-10 weeks. Endpoints were expression of PD markers pS6 and pERK, proliferation marker Ki67, apoptosis as measured by TUNEL, tumor volume and survival.

GSC17 [2] = test: Orthotopic GSC xenograft model; format: in vivo, mice
Description: as §1

GSC7-2 [3] = test: Orthotopic GSC xenograft model; format: in vivo, mice
Description: as §1

GSC272 = test: Orthotopic GSC xenograft model; format: in vivo, mice
Description: as §1

GSC11 [4] = test: Orthotopic GSC xenograft model; format: in vivo, mice
Description: as §1

GSC20 [5] = test: Orthotopic GSC xenograft model; format: in vivo, mice
Description: as §1

GSC6-27 [6] = test: Orthotopic GSC xenograft model; format: in vivo, mice
Description: as §1

GSC231 [7] = test: GSC lines: sensitivity in vitro (IC50); format: cell-based; details: GSC231 line in vitro
Description: (§2) FIG. 1: In vitro analyses in GSC lines. (A) Western blot analysis of protein expression; (B) IC50 of M2698; (C) IC50 of pimasertib; and (D) apoptotic GSC11, GSC7-2, and GSC17 cells after treatment with M2698, pimasertib, or M2698+pimasertib combination. Single agents were tested at their IC50; half the IC50 of each compound was used for the combination.
(§3) All GSC lines expressed Akt. Relatively high pAkt expression in GSC17, GSC7-2, GSC231, GSC11, GSC20, GSC6-27, and GSC8-11 lines compared with GSC272 and GSC267 (FIG. 1A).

GSC17 [8] = test: GSC lines: sensitivity in vitro (IC50); format: cell-based; details: GSC17 line in vitro
Description: as §2, §3

GSC7-2 [9] = test: GSC lines: sensitivity in vitro (IC50); format: cell-based; details: GSC7-2 line in vitro
Description: as §2, §3

GSC8-11 = test: GSC lines: sensitivity in vitro (IC50); format: cell-based; details: GSC8-11 line in vitro
Description: as §2, §3

GSC11 [10] = test: GSC lines: sensitivity in vitro (IC50); format: cell-based; details: GSC11 line in vitro
Description: as §2, §3

GSC20 [11] = test: GSC lines: sensitivity in vitro (IC50); format: cell-based; details: GSC20 line
Description: as §2, §3

GSC6-27 [12] = test: GSC lines: sensitivity in vitro (IC50); format: cell-based; details: GSC6-27 line in vitro
Description: as §2, §3

[13] = system: human cholangiocarcinoma cancer PDX; test: PDX models of cholangiocarcinoma; format: in vivo, mice; details: 20 mg/kg each agent QD PO
Source text: The objective of this experiment was to evaluate the antitumor activity of M2698 alone and in combination with Pimasertib in a panel of 13 Patient-Derived Xenograft models representing human cholangiocarcinoma cancer derived from Chinese patients in immune-deficient mice.
Vehicle: 0.5% Methocel/0.25% Tween20 in Milli-Q Water. Tumors from three untreated mice were collected as satellite samples when reached a tumor volume between 300-500 mm3.

GSC17 [14] = test: Induction of apoptosis in GSC lines in vitro; format: cell-based
Description: (§4) FIG. 1: In vitro analyses in GSC lines. (A) Western blot analysis of protein expression; (B) IC50 of M2698; (C) IC50 of pimasertib; and (D) apoptotic GSC11, GSC7-2, and GSC17 cells after treatment with M2698, pimasertib, or M2698+pimasertib combination. […]
(§5) Induction of apoptosis by M2698, pimasertib, and the combination was measured in three of five GSC lines that were sensitive to M2698 in vitro.

GSC7-2 [15] = test: Induction of apoptosis in GSC lines in vitro; format: cell-based
Description: as §4, §5

GSC11 [16] = test: Induction of apoptosis in GSC lines in vitro; format: cell-based
Description: as §4, §5

[17] = system: Non-Small Lung Cancer (NSCLC) Brain Metastases PDX; test: PDX models of NSCLC brain metastases; format: in vivo
p70S6K = p70S6K (Homo sapiens, UniProt P23443); details: variety of cell-based assays; cited from earlier work
p70S6K, sequence (P23443 whole entry): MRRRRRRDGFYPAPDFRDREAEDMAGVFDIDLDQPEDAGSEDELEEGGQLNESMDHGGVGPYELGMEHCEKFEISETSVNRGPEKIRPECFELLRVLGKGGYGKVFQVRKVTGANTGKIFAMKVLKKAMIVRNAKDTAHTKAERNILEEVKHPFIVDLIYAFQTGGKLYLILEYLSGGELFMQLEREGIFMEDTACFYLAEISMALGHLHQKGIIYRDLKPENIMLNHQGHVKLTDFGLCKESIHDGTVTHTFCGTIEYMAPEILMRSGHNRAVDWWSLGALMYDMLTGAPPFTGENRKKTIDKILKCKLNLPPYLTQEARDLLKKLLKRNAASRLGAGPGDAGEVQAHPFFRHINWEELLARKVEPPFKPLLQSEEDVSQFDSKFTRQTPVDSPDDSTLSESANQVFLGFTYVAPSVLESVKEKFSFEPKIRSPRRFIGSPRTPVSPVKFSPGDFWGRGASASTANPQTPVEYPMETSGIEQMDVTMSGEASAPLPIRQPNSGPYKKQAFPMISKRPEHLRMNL

[18] = in vivo; cited from earlier work
cancer cell lines = details: broad panel of cancer cell lines; cited from earlier work
Colorectal Cancer PDX = test: 75 PDX models of colorectal cancer; format: in vivo; details: CRC PDX; M2698 25 mg/kg po qd, Pimasertib 20 mg/kg po qd, Cetuximab 20 mg/kg ip q2w
Source text: Of the 75 models, 25 were wild type, 25 KRas mutant, and 25 BRaf mutant.

Akt = details: variety of cell-based assays; cited from earlier work
human GBM = details: orthotopically implanted models of human GBM; cited from earlier work
[19] = system: Her2+/HR− Breast Cancer PDX; test: PDX models of Her2+/HR- breast cancer; format: in vivo
SCCHN PDX = test: 38 PDX models of SCCHN, 1+1 screen; format: in vivo, mouse; details: 38 models, M2698 25 mg/kg PO QDx28, Cetuximab 30 mg/kg IP 2wklyx4
Description: 46 SCCHN PDX models were run in a 1+1 scheme (one mouse per treatment group). […] With the adjustment to the cancellation, 38 models were completed. […] After implantation, treatments began when average tumor volume reached ˜200 mm^3 for each model. Tumor volumes were measured for each model until the control tumor reached ˜1200 mm^3 at which time all animals for that model were euthanized.

In the case of `NC(=O)c1cccc2c(N[C@H](CN3CCC3)c3ccc(Cl)c(C(F)(F)F)c3)ncnc12` [M2698, 4-[(S)-2-Azetidin-1-yl-1-(4-chloro-3-trifluoromethyl-phenyl)-ethylamino]-quinazoline-8-carboxylic acid amide], the “pERK expression in orthotopic tumor” value (GSC231 [1]; GSC231, PD marker) is reported as “reduced pERK”, the “pS6 expression in orthotopic tumor” value (GSC231 [1]; GSC231, PD marker) is reported as “significantly reduced pS6” and the median survival (GSC231 [1]; GSC231 orthotopic, vs vehicle) is reported as “prolonged survival”. The “tumor volume / tumor growth” value (GSC231 [1]; GSC231 orthotopic, vs vehicle) was “significantly inhibited tumor growth”, the “pERK expression in orthotopic tumor” value (GSC17 [2]; GSC17, PD marker) was “reduced pERK” and the “pS6 expression in orthotopic tumor” value (GSC17 [2]; GSC17, PD marker) was “significantly reduced pS6”. For the same compound, the “tumor volume / tumor growth” value (GSC17 [2]; GSC17 orthotopic, vs vehicle) was “significantly inhibited tumor growth”, the “proliferation (Ki67 by immunohistochemistry)” value (GSC17 [2]; GSC17 tumor sections, compared to vehicle) was “significantly reduced proliferation” and the “pERK expression in orthotopic tumor” value (GSC7-2 [3]; GSC7-2, PD marker) was “reduced pERK”. The “pS6 expression in orthotopic tumor” value (GSC7-2 [3]; GSC7-2, PD marker) was “significantly reduced pS6”, the “tumor volume / tumor growth” value (GSC7-2 [3]; GSC7-2 orthotopic, vs vehicle) was “significantly inhibited tumor growth” and the “proliferation (Ki67 by immunohistochemistry)” value (GSC7-2 [3]; GSC7-2 tumor sections, compared to vehicle) was “significantly reduced proliferation”. For the same compound, the “number of apoptotic cells/field” value (GSC7-2 [3]; GSC7-2 xenografts, after 10 weeks) was 52.17±25.20 cells/field, the “apoptosis in xenografts vs control” value (GSC7-2 [3]; GSC7-2 xenografts, at 7.5 weeks) was “Neither M2698, pimasertib, nor combination treatment significantly affected apoptosis” and the “pERK expression in orthotopic tumor” value (GSC272; GSC272, PD marker) was “reduced pERK”. For the same compound, the “pS6 expression in orthotopic tumor” value (GSC272; GSC272, PD marker) was “significantly reduced pS6”, the median survival (GSC272; GSC272 orthotopic, vs vehicle) was “prolonged survival” and the “tumor volume / tumor growth” value (GSC272; GSC272 orthotopic, vs vehicle) was “significantly inhibited tumor growth”. For the same compound, the “pERK expression in orthotopic tumor” value (GSC11 [4]; GSC11, PD marker) was “reduced pERK”, the “pS6 expression in orthotopic tumor” value (GSC11 [4]; GSC11, PD marker) was “significantly reduced pS6” and the “tumor volume / tumor growth” value (GSC11 [4]; GSC11 orthotopic, vs vehicle) was “had a trend to do so”. For the same compound, the “pS6 expression in orthotopic tumor” value (GSC20 [5]; GSC20, PD marker) was “lack of significant response”, the “tumor volume / tumor growth” value (GSC20 [5]; GSC20 orthotopic, vs vehicle) was “had not responded” and the “pERK expression in orthotopic tumor” value (GSC6-27 [6]; GSC6-27, PD marker) was “reduced pERK”. The “pS6 expression in orthotopic tumor” value (GSC6-27 [6]; GSC6-27, PD marker) was “significantly reduced pS6”, the “tumor volume / tumor growth” value (GSC6-27 [6]; GSC6-27 orthotopic, vs vehicle) was “significantly inhibited tumor growth” and the IC50 (GSC231 [7]) was < 2000 nM. The IC50 (GSC17 [8]) was < 2000 nM, the IC50 (GSC7-2 [9]) was < 2000 nM and the IC50 (GSC8-11) was < 2000 nM. The IC50 (GSC11 [10]) was < 2000 nM, the “sensitivity in vitro” value (GSC20 [11]) was “insensitivity” and the IC50 (GSC6-27 [12]) was < 2000 nM. For the same compound, the “tumor stasis, number of tumor samples” value [13] was 2/12, the “tumor stasis, share of tumor samples” value [13] was 17% and the apoptotic percentage (GSC17 [14]; GSC17, monotherapy at 2×IC50) was 12%. For the same compound, the apoptotic percentage (GSC17 [14]; GSC17, monotherapy at the IC50) was 11%, the apoptotic percentage (GSC7-2 [15]; GSC7-2, monotherapy at 2×IC50) was 17% and the apoptotic percentage (GSC7-2 [15]; GSC7-2, monotherapy at the IC50) was 13%. The apoptotic percentage (GSC11 [16]; GSC11, monotherapy at 2×IC50) was 62%, the apoptotic percentage (GSC11 [16]; GSC11, monotherapy at the IC50) was 56% and the “tumor control rate (TCR)” value [17] was 5%. The “inhibition of p70S6K” value (p70S6K) was “highly potent”, the blood-brain barrier penetration [18] was “crosses the blood-brain barrier” and the “anti-tumor activity” value (cancer cell lines) was “potent anti-tumor activity”. The “tumor control rate (TCR)” value (Colorectal Cancer PDX) was 15%, the “tumor control rate (TCR), models controlled/models” value (Colorectal Cancer PDX) was 11/74 and the “inhibition of Akt” value (Akt) was “highly potent”. For the same compound, the survival (human GBM) was “prolongs survival”, the tumor growth (human GBM) was “reduces tumor growth” and the “tumor volume over the duration of the experiment” value [19] was “stasis of the tumor volume”. For the same compound, the “Models with an Overall Response (“RECIST”)” value (SCCHN PDX) was 7/38, the “Partial response (number of models)” value (SCCHN PDX) was 0 and the “Tumor Progression (number of models)” value (SCCHN PDX) was 31. For the same compound, the “Tumor Stasis (number of models)” value (SCCHN PDX) was 7 and the “tumor control rate (TCR)” value (SCCHN PDX) was 18%.
